Measured values from US4382889A, “Epoxysuccinic acid derivatives” (Taisho Pharmaceutical Co., Ltd., priority 1979, dated 1983).
Where a name gives a salt, the structure may show the parent alone.

Assays:
[1] = target: T1, calcium-activated neutral thiolprotease (CANP) (Gallus gallus, UniProt P00789); assay: CANP inhibitory activity (method of Ishiura et al); format: biochemical; settings: 50% inhibition as molar ratio to the enzyme; CANP from muscle of hereditary muscular dystrophy chicken
T1 construct: CANP prepared from a muscle of hereditary muscular dystrophy chicken; from tissue; host or cells: muscle of hereditary muscular dystrophy chicken
T1 sequence (P00789 1-705): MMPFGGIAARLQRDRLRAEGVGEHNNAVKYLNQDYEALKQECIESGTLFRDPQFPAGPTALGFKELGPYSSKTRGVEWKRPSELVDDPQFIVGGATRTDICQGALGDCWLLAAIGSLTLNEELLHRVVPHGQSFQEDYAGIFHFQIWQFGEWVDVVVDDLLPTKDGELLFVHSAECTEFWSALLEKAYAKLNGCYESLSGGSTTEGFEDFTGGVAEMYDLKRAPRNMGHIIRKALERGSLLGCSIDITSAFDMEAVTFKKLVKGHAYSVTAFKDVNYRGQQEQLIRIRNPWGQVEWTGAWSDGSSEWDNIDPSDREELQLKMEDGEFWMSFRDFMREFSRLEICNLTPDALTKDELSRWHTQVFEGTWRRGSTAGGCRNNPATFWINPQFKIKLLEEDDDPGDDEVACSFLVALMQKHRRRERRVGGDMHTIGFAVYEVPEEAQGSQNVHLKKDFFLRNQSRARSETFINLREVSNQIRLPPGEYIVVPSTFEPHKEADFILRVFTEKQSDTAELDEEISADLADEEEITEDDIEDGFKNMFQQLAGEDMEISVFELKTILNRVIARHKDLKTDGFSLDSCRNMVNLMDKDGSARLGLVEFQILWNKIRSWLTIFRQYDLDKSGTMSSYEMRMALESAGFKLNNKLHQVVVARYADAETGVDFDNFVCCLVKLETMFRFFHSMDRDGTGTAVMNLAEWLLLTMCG
Method: Their muscular dystrophy inhibitory activity was assayed by the method of Ishiura et al, [J. of Biochem., 84, 225(1978)] using CANP prepared from a muscle of hereditary muscular dystrophy chicken, and the resulting value for 50% inhibition in the molar ratios for the enzyme expressed as ID50 (mole/mole) is shown in Table 1.

papain = target: T2, papain (Carica papaya, UniProt P00784); assay: Papain inhibitory activity (method of K. Hanada et al); format: biochemical; settings: papain 80 ug/ml, Sigma, 2 x cry.
T2 construct: purchased Sigma Chem. Co
T2 sequence (P00784 134-345): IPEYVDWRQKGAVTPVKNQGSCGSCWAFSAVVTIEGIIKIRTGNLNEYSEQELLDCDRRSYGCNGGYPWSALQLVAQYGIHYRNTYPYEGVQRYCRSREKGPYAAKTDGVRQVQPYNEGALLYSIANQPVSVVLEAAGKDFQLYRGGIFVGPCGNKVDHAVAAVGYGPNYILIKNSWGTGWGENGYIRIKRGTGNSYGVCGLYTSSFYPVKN
Method: Papain inhibitory activity of the compounds of the present invention was assayed by the method of K. Hanada et al, [Argric. Biol. Chem., 42, No. 3, 523(1978)] using papain (80 ug/ml, Sigma Chem. Co., 2 x cry.).

[2] = Concentration of test compound in rat plasma after subcutaneous administration; format: in vivo; settings: sc, 50 mg/kg, an hour after administration
Method: The compounds of the present invention are better absorbed by the subcutaneous route in mammals such as rats or rabbits, as compared with the epoxysuccinic acid derivatives of the German Patent Laid Open Application described above and Chemical Abstracts, 87, 68129a (1977). To determine absorption, these compounds were administered subcutaneously to rat at a dose of 50 mg/kg, and the concentration of the test compound in rat plasma at an hour after the administration was shown in Table 1.

SMILES	CANP Inhibitory Activity ID50 (mole/mole) [1]	Papain ID50 (amount of inhibitor for 50% inhibition) (papain)	concentration at 1 h [2]
COC(=O)[C@@H]1CCCN1C(=O)[C@H](CC(C)C)NC(=O)C1OC1C(=O)OCc1ccccc1 (mixture of isomers) [Compound 19, N-(DL-3-trans-benzyloxycarbonyloxirane-2-carbonyl)-L-leucyl-L-proline methyl ester]	23 mole/mole	0.123 µg	1500 ng/mL
O=C(O)C1OC1C(=O)N[C@@H](Cc1ccccc1)C(=O)OCc1ccccc1 (stereo partly drawn) [D, N--(3carboxyoxirane-2-carbonyl)-L-phenylalanine benzyl ester, reference compound]	574 mole/mole	–	< 1000 ng/mL
CC(C)C[C@H](NC(=O)C1OC1C(=O)O)C(=O)NCCc1ccccc1 (mixture of isomers) [Compound 16, N-[N'-(DL-3-trans-carboxyoxirane-2-carbonyl)-L-leucyl]phenethylamine potassium salt]	90 mole/mole	0.123 µg	12000 ng/mL
O=C(O)[C@H]1O[C@@H]1C(=O)OCc1ccccc1 (relative stereo) [B, Benzyl hydrogen epoxysuccinate, reference compound]	410 mole/mole	–	< 1000 ng/mL
COC(=O)[C@H](CCCN=C(N)N)NC(=O)[C@H](CC(C)C)NC(=O)C1OC1C(=O)O (mixture of isomers) [Compound 43, N-(DL-3-transcarboxyoxirane-2-carbonyl)-L-leucyl-L-arginine methyl ester]	100 mole/mole	0.195 µg	7000 ng/mL
CC(C)C[C@H](NC(=O)C1OC1C(=O)OCc1ccccc1)C(=O)N[C@@H](CCCNC(=O)OCc1ccccc1)C(=O)OCc1ccccc1 (mixture of isomers) [Compound 30, N-(DL-3-trans-benzyloxycarbonyloxirane-2-carbonyl)-L-leucyl-δ-carbobenzoxy-L-ornithine benzyl ester]	100 mole/mole	0.391 µg	2000 ng/mL
CCOC(=O)[C@H]1O[C@@H]1C(=O)O (relative stereo) [A, Ethyl hydrogen epoxysuccinate, reference compound]	5,400 mole/mole	–	< 1000 ng/mL
COC(=O)[C@H](CC(C)C)NC(=O)[C@H](Cc1ccccc1)NC(=O)C1OC1C(=O)OCc1ccccc1 (some centres unmarked) [Compound 36]	200 mole/mole	0.595 µg	1800 ng/mL
CCOC(=O)C1OC1C(=O)N[C@@H](CC(C)C)C(=O)OCc1ccccc1 (stereo partly drawn) [C, N--(3ethoxy-carbonyloxirane-2-carbonyl)-L-leucine benzyl ester, reference compound]	580 mole/mole	–	< 1000 ng/mL
CC[C@H](C)[C@H](NC(=O)C1OC1C(=O)OCc1ccccc1)C(=O)N(C)Cc1ccccc1 (mixture of isomers) [Compound 12, N-[N'-(DL-3-trans-benzyloxycarbonyloxirane-2-carbonyl)-L-isoleucyl]-N-methylbenzylamine]	65 mole/mole	0.260 µg	1300 ng/mL
CC(C)C[C@H](NC(=O)C1OC1C(=O)O)C(=O)NC(C)C (mixture of isomers) [Compound 15, N-[N'-(DL-3-trans-carboxyoxirane-2-carbonyl)-L-leucyl]isopropylamine potassium salt]	35 mole/mole	0.112 µg	20000 ng/mL
CC(C)C[C@H](NC(=O)C1OC1C(=O)O)C(=O)O (stereo partly drawn) [E, N--(3carboxyoxirane-2-carbonyl)-L-leucine, reference compound]	4,600 mole/mole	–	< 1000 ng/mL
CC(C)C[C@H](NC(=O)C1OC1C(=O)O)C(=O)N[C@@H](CC(C)C)C(=O)OCc1ccccc1 (mixture of isomers) [Compound 48, N-(DL-3-trans-carboxyoxirane-2-carbonyl)-L-leucyl-L-leucine benzyl ester]	–	0.215 µg	–
CC(C)C[C@H](NC(=O)C1OC1C(=O)OC1CCCC1)C(=O)NC1CCCC1 (mixture of isomers) [Compound 14, N-[N'-(DL-3-trans-cycloentyloxycarbonyl)-L-leucyl]cyclopentylamine]	–	0.187 µg	–
COC(=O)C1OC1C(=O)N[C@@H](CC(C)C)C(=O)N[C@@H](CCSC)C(=O)OC (some centres unmarked) [Compound 28]	–	0.156 µg	–
CCOC(=O)C1OC1C(=O)N[C@@H](CC(C)C)C(=O)N[C@@H](CC(C)C)C(=O)N(C)C (some centres unmarked) [Compound 35]	–	0.212 µg	–
COC(=O)[C@H](Cc1ccccc1)NC(=O)[C@H](Cc1ccccc1)NC(=O)C1OC1C(=O)OCc1ccccc1 (some centres unmarked) [Compound 37]	–	2.50 µg	–
CCC(C)[C@H](NC(=O)C1OC1C(=O)OCc1ccccc1)C(=O)N[C@H](C(=O)OC)C(C)C (some centres unmarked) [Compound 41]	–	0.272 µg	–
COC(=O)CC[C@H](NC(=O)[C@H](CC(C)C)NC(=O)C1OC1C(=O)OCc1ccccc1)C(=O)OC (mixture of isomers) [Compound 20, N-(DL-3-trans-benzyloxycarbonyloxirane-2-carbonyl)-L-leucyl-L-gluamic acid dimethyl ester]	–	0.255 µg	–
CCC(C)[C@H](NC(=O)C1OC1C(=O)OCc1ccccc1)C(=O)N[C@@H](Cc1c[nH]c2ccccc12)C(=O)OC (some centres unmarked) [Compound 38]	–	0.305 µg	–
COC(=O)[C@H](C)NC(=O)[C@@H](NC(=O)C1OC1C(=O)OCc1ccccc1)C(C)C (some centres unmarked) [Compound 42]	120 mole/mole	0.595 µg	1100 ng/mL
CC(C)C[C@H](NC(=O)C1OC1C(=O)OC1CCCCC1)C(=O)NC1CCCCC1 (mixture of isomers) [Compound 13, N-[N'-(DL-3-trans-cyclohexyloxycarbonyloxirane-2-carbonyl)-L-leucyl]cyclohexylamine]	–	0.255 µg	–
CC(C)C[C@H](NC(=O)[C@H](CC(C)C)NC(=O)C1OC1C(=O)O)C(=O)O (mixture of isomers) [Compound 45, N-(DL-3-trans-carboxyoxirane-2-carbonyl)-L-leucyl-L-leucine]	64 mole/mole	0.236 µg	15000 ng/mL
CC(C)C[C@H](NC(=O)C1OC1C(=O)OCc1ccccc1)C(=O)N[C@@H](CC(C)C)C(=O)OCc1ccccc1 (mixture of isomers) [Compound 17, N-(DL-3-trans-benzyloxycarbonyloxirane-2-carbonyl)-L-leucyl-L-leucine benzyl ester]	–	0.255 µg	–
